≈ marks a conversion by molar mass, not a printed value. Calls of active or inactive are those of the source. The rule behind the calls is not given here.
Key:
Staphylococcus aureus [1] = test: Induction of morphological changes in methicillin-resistant Staphylococcus aureus assessed as appearance of wrinkled and depressed cell membrane surface at 8 times MIC incubated for 8 hrs by SEM analysis; type: functional, organism-based
Staphylococcus aureus [2] = test: Antibacterial activity against methicillin-resistant Staphylococcus aureus measured after 24 hrs by susceptibility assay; type: functional
Staphylococcus aureus [3] = test: Antibacterial activity against Staphylococcus aureus ATCC 29213 measured after 24 hrs by susceptibility assay; type: functional
Staphylococcus aureus [4] = test: Antibacterial activity against Staphylococcus aureus ATCC 6538 measured after 24 hrs by susceptibility assay; type: functional
[5] = tested on: Staphylococcus epidermidis; test: Antibacterial activity against Staphylococcus epidermidis ATCC 12228 measured after 24 hrs by susceptibility assay; type: functional
Staphylococcus aureus [6] = test: Induction of morphological changes in methicillin-resistant Staphylococcus aureus assessed as disruption of cellular structure at 8 times MIC incubated for 8 hrs by SEM analysis; type: functional, organism-based
Staphylococcus aureus [7] = test: Antibacterial activity against Staphylococcus aureus ATCC 6538 assessed as inhibition of bacterial growth at 2 to 4 times MIC measured every 2 hrs for 24 hrs by time kill assay relative to control; type: functional
Staphylococcus aureus [8] = test: Antibacterial activity against methicillin-resistant Staphylococcus aureus assessed as delay in bacterial growth at 0.5 times MIC measured every 2 hrs for 24 hrs by time kill assay; type: functional, organism-based
Staphylococcus aureus [9] = test: Bactericidal activity against Staphylococcus aureus ATCC 6538 measured after 24 hrs; type: functional
Staphylococcus aureus [10] = test: Antibacterial activity against methicillin-resistant Staphylococcus aureus assessed as inhibition of bacterial growth at 2 to 4 times MIC measured every 2 hrs for 24 hrs by time kill assay relative to control; type: functional
[11] = tested on: Staphylococcus epidermidis; test: Antibacterial activity against Staphylococcus epidermidis ATCC 12228 assessed as delay in bacterial growth at 0.5 times MIC measured every 2 hrs for 24 hrs by time kill assay; type: functional, organism-based
Staphylococcus aureus [12] = test: Antibacterial activity against Staphylococcus aureus ATCC 6538 assessed as inhibition of bacterial growth at 1 times MIC measured every 2 hrs for 24 hrs by time kill assay; type: functional, organism-based
Staphylococcus aureus [13] = test: Antibacterial activity against methicillin-resistant Staphylococcus aureus assessed as inhibition of bacterial growth at 1 times MIC measured every 2 hrs for 24 hrs by time kill assay; type: functional, organism-based
[14] = tested on: Staphylococcus epidermidis; test: Antibacterial activity against Staphylococcus epidermidis ATCC 12228 assessed as inhibition of bacterial growth at 2 to 4 times MIC measured every 2 hrs for 24 hrs by time kill assay relative to control; type: functional
[15] = tested on: Staphylococcus epidermidis; test: Bactericidal activity against Staphylococcus epidermidis ATCC 12228 measured after 24 hrs; type: functional
Staphylococcus aureus [16] = test: Resistant development in methicillin-resistant Staphylococcus aureus assessed as increase in MIC at sub-MIC measured after 20 passages; type: functional, organism-based
Staphylococcus aureus [17] = test: Bactericidal activity against Staphylococcus aureus ATCC 29213 measured after 24 hrs; type: functional
[18] = Hemolytic activity in rabbit red blood cells assessed as hemolytic rate at 128 times MIC measured after 1 hr by absorbance based method relative to control; type: toxicity, cell-based, Oryctolagus cuniculus, Erythrocyte; details: rabbit red blood cells (erythrocytes), read-out: Activity
[19] = tested on: Staphylococcus epidermidis; test: Antibacterial activity against Staphylococcus epidermidis ATCC 12228 assessed as inhibition of bacterial growth at 1 times MIC measured every 2 hrs for 24 hrs by time kill assay; type: functional, organism-based
Staphylococcus aureus [20] = test: Antibacterial activity against Staphylococcus aureus ATCC 6538 assessed as delay in bacterial growth at 0.5 times MIC measured every 2 hrs for 24 hrs by time kill assay; type: functional, organism-based
Staphylococcus aureus [21] = test: Bactericidal activity against methicillin-resistant Staphylococcus aureus measured after 24 hrs; type: functional

SMILES | MIC (Staphylococcus aureus [2]) [µM] | MIC (Staphylococcus aureus [3]) [µM] | MIC (Staphylococcus aureus [4]) [µM] | MIC [5] [µM] | other results
CCn1cc(C(=O)O)c(=O)c2cc(F)c(N3CCNCC3)cc21 [NORFLOXACIN] | 4 (≈ 1.28 µg/mL) | 2 (≈ 0.639 µg/mL) | 2 (≈ 0.639 µg/mL) | 1 (≈ 0.319 µg/mL) | Activity (Staphylococcus aureus [1]): Active; Activity (Staphylococcus aureus [6]): inactive
CC(=O)c1cccc2c3c([nH]c12)C(C)(C)[C@@H]1CC[C@]2(C)[C@H](CC=C4[C@@H]5CC(C)(C)CC[C@]5(C(=O)NS(=O)(=O)c5ccccc5)CC[C@]42C)[C@@]1(C)C3 | 1 (≈ 0.709 µg/mL) | 2 (≈ 1.42 µg/mL) | 1 (≈ 0.709 µg/mL) | 0.5 (≈ 0.355 µg/mL) | inhibition (INH) (Staphylococcus aureus [7]): 100%; Activity (Staphylococcus aureus [8]): Active; MBC (Staphylococcus aureus [9]): 2 µM (≈ 1.42 µg/mL); inhibition (INH) (Staphylococcus aureus [10]): 100%; Activity [11]: Active; Activity (Staphylococcus aureus [12]): Active; Activity (Staphylococcus aureus [13]): Active; inhibition (INH) [14]: 100%; MBC [15]: 2 µM (≈ 1.42 µg/mL); Activity (Staphylococcus aureus [16]): inactive; MBC (Staphylococcus aureus [17]): 2 µM (≈ 1.42 µg/mL); hemolysis at 1 h, 128 times MIC [18]: < 5%; Activity [19]: Active; Activity (Staphylococcus aureus [20]): Active; MBC (Staphylococcus aureus [21]): 4 µM (≈ 2.84 µg/mL)
Cc1ccc(S(=O)(=O)NC(=O)[C@]23CCC(C)(C)C[C@H]2C2=CC[C@@H]4[C@@]5(C)Cc6c([nH]c7c(C(=O)O)cccc67)C(C)(C)[C@@H]5CC[C@@]4(C)[C@]2(C)CC3)cc1 | 2 (≈ 1.45 µg/mL) | 2 (≈ 1.45 µg/mL) | 1 (≈ 0.725 µg/mL) | 2 (≈ 1.45 µg/mL) | inhibition (INH) (Staphylococcus aureus [7]): 100%; Activity (Staphylococcus aureus [8]): Active; MBC (Staphylococcus aureus [9]): 2 µM (≈ 1.45 µg/mL); inhibition (INH) (Staphylococcus aureus [10]): 100%; Activity [11]: Active; Activity (Staphylococcus aureus [12]): Active; Activity (Staphylococcus aureus [13]): Active; inhibition (INH) [14]: 100%; MBC [15]: 4 µM (≈ 2.9 µg/mL); Activity (Staphylococcus aureus [16]): inactive; MBC (Staphylococcus aureus [17]): 2 µM (≈ 1.45 µg/mL); hemolysis at 1 h, 128 times MIC [18]: < 5%; Activity [19]: Active; Activity (Staphylococcus aureus [20]): Active; MBC (Staphylococcus aureus [21]): 16 µM (≈ 11.6 µg/mL)
CC1(C)CC[C@]2(C(=O)NS(=O)(=O)c3ccc(C(=O)O)cc3)CC[C@]3(C)C(=CC[C@@H]4[C@@]5(C)Cc6c([nH]c7cccc(C(=O)O)c67)C(C)(C)[C@@H]5CC[C@]43C)[C@@H]2C1 | 256 (≈ 193 µg/mL) | 128 (≈ 96.6 µg/mL) | 64 (≈ 48.3 µg/mL) | 256 (≈ 193 µg/mL) | –
COc1cccc(OC)c1C(=O)N[C@@H]1C(=O)N2[C@@H]1SC(C)(C)[C@@H]2C(=O)O [METHICILLIN] | 256 (≈ 97.4 µg/mL) | 2 (≈ 0.761 µg/mL) | 4 (≈ 1.52 µg/mL) | 2 (≈ 0.761 µg/mL) | –
CN1CCN(C(=O)[C@]23CCC(C)(C)C[C@H]2C2=CC[C@@H]4[C@@]5(C)Cc6c([nH]c7cccc(C(=O)O)c67)C(C)(C)[C@@H]5CC[C@@]4(C)[C@]2(C)CC3)CC1 | > 256 | > 256 | > 256 | > 256 | –
COc1ccc(S(=O)(=O)NC(=O)[C@]23CCC(C)(C)C[C@H]2C2=CC[C@@H]4[C@@]5(C)CCC(=O)C(C)(C)[C@@H]5CC[C@@]4(C)[C@]2(C)CC3)cc1 | > 256 | > 256 | > 256 | > 256 | –
COc1ccc(S(=O)(=O)NC(=O)[C@]23CCC(C)(C)C[C@H]2C2=CC[C@@H]4[C@@]5(C)Cc6c([nH]c7c(C(=O)O)cccc67)C(C)(C)[C@@H]5CC[C@@]4(C)[C@]2(C)CC3)cc1 | 4 (≈ 2.96 µg/mL) | 1 (≈ 0.741 µg/mL) | 2 (≈ 1.48 µg/mL) | 2 (≈ 1.48 µg/mL) | –
CC1(C)CC[C@]2(C(=O)NS(=O)(=O)c3ccccc3)CC[C@]3(C)C(=CC[C@@H]4[C@@]5(C)Cc6c([nH]c7ccc(F)cc67)C(C)(C)[C@@H]5CC[C@]43C)[C@@H]2C1 | > 256 | > 256 | > 256 | > 256 | –

Source: ChEMBL document CHEMBL5608189, “Design and synthesis of unique indole-benzosulfonamide oleanolic acid derivatives as potent antibacterial agents against MRSA” (Eur J Med Chem, 2024)
